Measured values taken from the NIST ThermoML archive (doi:10.1021/je900974u).

Key:
[1] = Crystal
[2] = Molar enthalpy of transition or fusion; conditions: Crystal; Adiabatic calorimetry
[3] = molar heat capacity at constant pressure; conditions: 101.33 kPa, Liquid, Vacuum adiabatic calorimetry

CCCC[N+]1(C)CCCC1.O=S(=O)([N-]S(=O)(=O)C(F)(F)F)C(F)(F)F
Conditions	Molar enthalpy of transition or fusion [kcal/mol]	Triple point temperature [K]
[1]	–	265.65
[2]	5.234	–

[3]
Conditions	molar heat capacity at constant pressure [J/K/mol]
237.44 K	546.8
239.5 K	548
241.39 K	549
243.28 K	550.7
245.17 K	552.2
247.06 K	553.5
248.95 K	554.6
250.84 K	556
252.73 K	557.3
254.62 K	558.7
256.51 K	559.6
258.4 K	561.5
260.29 K	562.1
262.04 K	563.9
262.18 K	563.5
264.07 K	565.2
264.1 K	565.2
265.99 K	566.6
267.88 K	567.6
269.77 K	568.9
271.66 K	570.2
273.55 K	571.6
275.44 K	572.9
277.33 K	574.2
279.22 K	575.3
281.11 K	576.6
283 K	577.9
284.89 K	579.2
286.78 K	580.2
288.67 K	581.4
290.56 K	582.8
292.45 K	584
294.34 K	585.1
296.23 K	586.3
298.12 K	588
300.01 K	589
301.9 K	590.6
303.79 K	591.8
305.68 K	593
307.57 K	594.5
309.46 K	595.6
311.34 K	596.7
313.23 K	598.2
315.12 K	599.6
317.02 K	600.8
318.92 K	602.2
320.82 K	603.4
322.71 K	604.5
324.61 K	606.1
326.51 K	607.5
328.41 K	608.6
330.31 K	609.9
332.21 K	611.4
334.11 K	612.9
336.01 K	614.2
337.91 K	615.4
339.81 K	616.8
341.72 K	618.2
343.62 K	619.5
345.52 K	621
347.44 K	622.4
349.34 K	623.9
351.25 K	625.2
353.16 K	626.7
355.06 K	627.9
356.97 K	629.2
358.87 K	630.9
360.78 K	632.1
362.69 K	633.7
364.59 K	635
366.5 K	636.1
368.4 K	638

CCCC[N+](C)(C)C.O=S(=O)([N-]S(=O)(=O)C(F)(F)F)C(F)(F)F [butyltrimethylammonium bis(trifluoromethylsulfonyl)imide]
Conditions	Molar enthalpy of transition or fusion [kcal/mol]	Triple point temperature [K]
[1]	–	290.23
[2]	2.725	–

[3]
Conditions	molar heat capacity at constant pressure [J/K/mol]
278.32 K	547.5
280.19 K	548.7
282.06 K	549.7
283.93 K	550.8
285.8 K	551.9
287.67 K	553
289.54 K	554.1
291.42 K	555.3
293.29 K	556.4
293.87 K	557
295.16 K	557.4
297.04 K	558.4
298 K	559.2
298.91 K	559.5
300.04 K	560.4
302.07 K	561.1
304.14 K	563.3
306.21 K	563.9
308.28 K	565.4
310.35 K	566.5
312.42 K	568.2
314.49 K	569.1
316.55 K	570.3
318.6 K	571.4
320.67 K	573.2
322.73 K	575.1
324.8 K	575
326.86 K	576.5
328.92 K	577.2
330.98 K	578.5
333.04 K	580.6
335.09 K	581.5
337.15 K	582.9
339.2 K	584.1
341.26 K	585.7
343.31 K	586.6
345.36 K	587.7
347.41 K	588.6
349.46 K	590.1
351.49 K	591.1
353.54 K	592.1
355.59 K	593.4
357.65 K	594.8
359.7 K	596
361.76 K	597.4
363.81 K	598.5
365.87 K	599.8
367.93 K	600.9
